Experimental data reported in ChEMBL document CHEMBL5352410, “Discovery of novel selenium-containing azole derivatives as antifungal agents by exploiting the hydrophobic cleft of CYP51” (Eur J Med Chem, 2022).
Values after ≈ are worked out from the molar mass of the structure shown.

How the values were obtained:
Candida albicans [1] = experiment: Fungicidal activity against FCZ-resistant Candida albicans CaR; format: functional
Candida albicans [2] = experiment: Antibiofilm activity against Candida albicans CPCC400616 assessed as sessile minimum inhibitory concentration measured after 6 hrs by XTT assay; format: functional
Candida albicans [3] = experiment: Fungicidal activity against Candida albicans; format: functional
[4] = target: T1, Lanosterol 14-alpha demethylase (Candida albicans (strain SC5314 / ATCC MYA-2876) (Yeast), UniProt P10613); experiment: Inhibition of CYP51 of Candida albicans ATCC SC5314 assessed as increase in obtusifoliol level at 4 ug/ml incubated for 16 hrs by GC-MS analysis (reference value: 0 %); set-up: scale not given: the % may be the effect or the level left; settings: at 4 µg/mL
T1 sequence (P10613 whole entry): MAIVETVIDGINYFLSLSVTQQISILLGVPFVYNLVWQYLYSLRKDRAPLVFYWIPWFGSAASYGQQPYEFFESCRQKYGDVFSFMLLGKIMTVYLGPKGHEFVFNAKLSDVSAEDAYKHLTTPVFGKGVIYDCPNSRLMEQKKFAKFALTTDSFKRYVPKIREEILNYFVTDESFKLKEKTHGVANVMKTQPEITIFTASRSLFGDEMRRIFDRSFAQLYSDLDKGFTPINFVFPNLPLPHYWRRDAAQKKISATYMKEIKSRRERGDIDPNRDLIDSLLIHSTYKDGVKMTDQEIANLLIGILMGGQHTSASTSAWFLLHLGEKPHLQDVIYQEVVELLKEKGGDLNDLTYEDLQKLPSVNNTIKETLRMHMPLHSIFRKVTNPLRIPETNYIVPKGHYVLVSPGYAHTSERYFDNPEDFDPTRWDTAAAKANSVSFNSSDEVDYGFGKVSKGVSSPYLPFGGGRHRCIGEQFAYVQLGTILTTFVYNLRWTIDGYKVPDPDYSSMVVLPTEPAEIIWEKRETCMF

Candida albicans [5] = experiment: Antibiofilm activity against Candida albicans CPCC400616 assessed as sessile minimum inhibitory concentration measured after 24 hrs by XTT assay; format: functional
Candida albicans [6] = experiment: Antibiofilm activity against Candida albicans SC5314 assessed as sessile minimum inhibitory concentration measured after 24 hrs by XTT assay; format: functional
[7] = target: T1, Lanosterol 14-alpha demethylase; experiment: Inhibition of CYP51 of Candida albicans ATCC SC5314 assessed as increase in lanosterol level at 4 ug/ml incubated for 16 hrs by GC-MS analysis (reference value: 1.7 %); set-up: scale not given: the % may be the effect or the level left; settings: at 4 µg/mL
[8] = Acute toxicity in water diet-fed Kunming mouse assessed as animal death at 500 mg/kg, IG measured for 7 days; format: organism-based; settings: in vivo, po, 168 h, time 7 day
[9] = target: T1, Lanosterol 14-alpha demethylase; experiment: Inhibition of CYP51 of Candida albicans ATCC SC5314 assessed as decrease in ergosterol level by measuring residual activity at 2 ug/ml incubated for 16 hrs by GC-MS analysis (reference value: 98.3 %); settings: at 2 µg/mL
[10] = target: T1, Lanosterol 14-alpha demethylase; experiment: Inhibition of CYP51 of Candida albicans ATCC SC5314 assessed as increase in lanosterol level at 8 ug/ml incubated for 16 hrs by GC-MS analysis (reference value: 1.7 %); set-up: scale not given: the % may be the effect or the level left; settings: at 8 µg/mL
[11] = target: T1, Lanosterol 14-alpha demethylase; experiment: Inhibition of CYP51 of Candida albicans ATCC SC5314 assessed as increase in lanosterol level at 2 ug/ml incubated for 16 hrs by GC-MS analysis (reference value: 1.7 %); set-up: scale not given: the % may be the effect or the level left; settings: at 2 µg/mL
Candida albicans [12] = experiment: Antifungal activity against FCZ-resistant Candida albicans 17# by CLSI based broth microdilution method; format: functional

For `Clc1ccc(C(Cn2ccnc2)[Se][Se]C(Cn2ccnc2)c2ccc(Cl)cc2Cl)c(Cl)c1` (stereo not given), which MFC (Candida albicans [1]) is on record?
The MFC was 16 µg/mL (≈ 25.1 µM).

What about the MIC50 (Candida albicans [2]) of the same compound?
The MIC50 was 1 µg/mL (≈ 1.57 µM).

And the MIC80 (Candida albicans [2])?
Its MIC80 is 4 µg/mL (≈ 6.27 µM).

And the MFC (Candida albicans [3])?
Its MFC is 16 µg/mL (≈ 25.1 µM).

What about the Activity [4] of the same compound?
The Activity was 13.5%.

And the MIC50 (Candida albicans [5])?
The MIC50 was 4 µg/mL (≈ 6.27 µM).

What about the MIC80 (Candida albicans [5]) of the same compound?
Its MIC80 is 4 µg/mL (≈ 6.27 µM).

What about the MIC50 (Candida albicans [6]) of the same compound?
Its MIC50 is 0.5 µg/mL (≈ 0.784 µM).

What about the MIC80 (Candida albicans [6]) of the same compound?
The MIC80 was 32 µg/mL (≈ 50.1 µM).

And the Activity [7]?
Its Activity is 14.2%.

What about the Activity [8] of the same compound?
The Activity was “Non-Toxic”.

And the Activity [9]?
The Activity was 2.4%.

And the Activity [10]?
Its Activity is 16.7%.

What about the Activity [11] of the same compound?
Its Activity is 22.6%.

What about the MIC (Candida albicans [12]) of the same compound?
The MIC was 8 µg/mL (≈ 12.5 µM).
